The assay addresses human recombinant TAK1-TAB1 Kinase (TAK1 (1-303) and TAB1 (437-end)) (Homo sapiens (Human), UniProt O43318). As to the kind of experiment: TAK1 biochemical ADP-Glo kinase assay. The note with it: MBP substrate. Here is the method:
The usefulness of the example compounds of the invention as TAK1 inhibitors was evaluated in a biochemical ADP-Glo kinase assay. Assay kits from Promega Corporation V4089 were used according to manufacturer's instructions and adapted as outlined here. ADP-Glo Kinase Assay kit contains ADP-Glo Reagent, Kinase Detection Reagent, kinase detection buffer, ATP, and ADP. The Kinase Enzyme Systems include human recombinant TAK1-TAB1 Kinase (TAK1 (1-303) and TAB1 (437-end)), Native Swine Myelin Basic Protein (MBP) substrate, 5×kinase reaction buffer, and DTT.
Test compounds were prepared in 1:5 serial dilutions at 8 concentrations in DMSO from 10 mM stock solutions. An additional 20-fold dilution in 1× kinase reaction buffer (see below) was performed, yielding a final dilution series in kinase buffer with 5% DMSO (final concentration in assay from 20 μM to 0.26 nM, 1% DMSO). As controls, Takinib was prepared as positive control (3 μM final in assay), and DMSO without inhibitor served as negative control, at a final assay concentration of DMSO of 1%.
One μl of compound solution in 5% DMSO was added to each well in a 384 well microtiter plate (OptiPlate #6007290). Two μl TAK1-TAB1 (7.5 ng/μl) in lxkinase reaction buffer ([…] Tris base pH 7.5, 20 mM MgCl2, 50 μM DTT, 0.1 mg/ml BSA) was added and pre-incubated 10 min before adding 2 μl of a mixture of MBP substrate and ATP (0.25 μg/μL MBP/25 μM ATP or 0.25 μg/μL MBP/2.5 mM ATP) in 1× kinase reaction buffer (as above). The plate was subsequently incubated at room temperature for 1 hour. Then 5 μl ADP-Glo™ reagent from ADP-Glo™ kit (as above) was added and incubated for 40 min to stop the reaction and consume remaining ATP. Ten μl kinase detection substrate (dissolved in kinase detection buffer, both from ADP-Glo™ kit as above) was then added to convert ADP to ATP and detect ATP with luciferase/luciferin. The plate was incubated for 30 minutes at room temperature in dark before reading luminescence on an Envision (PerkinElmer) reader.
IC50 values of compounds of the invention were determined by the non-linear regression analysis of dose response curves.
Background: ADP-Glo first removes unused ATP, then detects ADP through luciferase.

[1] abbreviates: 10 μM ATP, read-out: TAK1 Mean IC50 (nM) @ 10 μM ATP.
[2] abbreviates: 1 mM ATP, read-out: TAK1 Mean IC50 (nM) @ 1 mM ATP.

SMILES strings stand for the structures. Read-outs that look alike come from different tables or passages of the source.

Chain of human recombinant TAK1-TAB1 Kinase (TAK1 (1-303) and TAB1 (437-end)) (O43318 other isoform, or with tags, fused parts or gaps): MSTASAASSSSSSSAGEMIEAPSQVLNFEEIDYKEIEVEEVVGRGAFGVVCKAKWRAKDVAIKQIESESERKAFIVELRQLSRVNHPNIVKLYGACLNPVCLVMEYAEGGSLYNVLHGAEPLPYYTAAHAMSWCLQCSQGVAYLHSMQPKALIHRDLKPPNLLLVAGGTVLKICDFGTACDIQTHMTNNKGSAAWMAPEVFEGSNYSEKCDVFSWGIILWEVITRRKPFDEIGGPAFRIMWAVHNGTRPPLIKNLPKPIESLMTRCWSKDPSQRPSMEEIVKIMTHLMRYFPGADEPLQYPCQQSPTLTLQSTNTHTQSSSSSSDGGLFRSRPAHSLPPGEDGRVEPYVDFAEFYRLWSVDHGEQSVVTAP

By IC50 is commonly meant the concentration needed to halve the response being measured. Turning to `CC1CCCCNC(=O)c2cccc(c2)C(=O)/N=C2\Nc3cccc(C(=O)N4CC[C@@H](F)C4)c3N21` (single isomer, unassigned) [Example 93], the IC50 under setting [1] turned out to be 6 nM.

As to `CC1CCCCNC(=O)c2nc(cs2)C(=O)/N=C2\Nc3cccc(C(=O)N(C)C)c3N21` (single isomer, unassigned) [Example 108, (1^2Z,4^2E)-N,N,5-trimethyl-2,11-dioxo-4^2,4^3-dihydro-4^1H-3,10-diaza-1(4,2)-thiazola-4(2,1)-benzo[d]imidazolacycloundecaphane-4^7-carboxamide], under setting [2], the IC50 is 23 nM.

As to `CC1CCCCNC(=O)c2nc(cs2)C(=O)/N=C2\Nc3cccc(C(=O)N(C)C)c3N21` (single isomer, unassigned) [Example 109, (1^2Z,4^2E)-N,N,5-trimethyl-2,11-dioxo-4^2,4^3-dihydro-4^1H-3,10-diaza-1(4,2)-thiazola-4(2,1)-benzo[d]imidazolacycloundecaphane-4^7-carboxamide], the IC50 under setting [2] worked out at 114 nM.

As to `C[C@H]1CCCCNC(=O)c2cccc(c2)C(=O)/N=C2\Nc3cccc(C(=O)N4CCC5(CCO5)C4)c3N21` (single isomer, unassigned) [Example 120], the IC50 was determined as 5 nM under setting [1] and 14 nM under setting [2].

Take `C[C@H]1CCCCNC(=O)c2cccc(c2)C(=O)/N=C2\Nc3cccc(C(=O)N4CCC5(CCO5)C4)c3N21` (single isomer, unassigned) [Example 121]: the IC50 runs as follows: under setting [1], 5 nM; under setting [2], 19 nM.

Turning to `C[C@H]1CCCCNC(=O)c2cccc(c2)C(=O)/N=C2\Nc3ccnc(N4CCC(F)C4=O)c3N21` (single isomer, unassigned) [Example 126], the half-maximal inhibitory concentration (IC50) amounted to 4 nM under setting [1] and 12 nM under setting [2].

With `C[C@H]1CCCCNC(=O)c2cccc(c2)C(=O)/N=C2\Nc3ccnc(N4CCC(F)C4=O)c3N21` (single isomer, unassigned) [Example 127], the IC50 runs as follows: under setting [1], 5 nM; under setting [2], 18 nM.

Consider `Cc1nnc(-c2cccc3c2N2/C(=N/C(=O)c4cccc(c4)C(=O)NCCCCC2C)N3)o1` (single isomer, unassigned) [Example 132, (E)-11-methyl-1^7-(5-methyl-1,3,4-oxadiazol-2-yl)-1^2,1^3-dihydro-1^1H-2,6-diaza-1(2,1)-benzo[d]imidazola-4(1,3)-benzenacycloundecaphane-3,5-dione], for which the IC50 under setting [1] turned out to be 10 nM and the IC50 under setting [2] was determined as 10 nM.

As to `Cc1nnc(-c2cccc3c2N2/C(=N/C(=O)c4cccc(c4)C(=O)NCCCCC2C)N3)o1` (single isomer, unassigned) [Example 133, (E)-11-methyl-1^7-(5-methyl-1,3,4-oxadiazol-2-yl)-1^2,1^3-dihydro-1^1H-2,6-diaza-1(2,1)-benzo[d]imidazola-4(1,3)-benzenacycloundecaphane-3,5-dione], the IC50 is 10 nM under setting [1] and 12 nM under setting [2].

Turning to `CC1CCCCNC(=O)c2cccc(c2)C(=O)/N=C2\Nc3cccc(-c4nccn4C)c3N21` (single isomer, unassigned) [Example 135, (E)-11-methyl-1^7-(1-methyl-1H-imidazol-2-yl)-1^2,1^3-dihydro-1^1H-2,6-diaza-1(2,1)-benzo[d]imidazola-4(1,3)-benzenacycloundecaphane-3,5-dione], the 50% inhibitory concentration (IC50) under setting [1] came to 6 nM.

For `CC1CCCCNC(=O)c2cccc(c2)C(=O)/N=C2\Nc3cccc(-c4ncn(C(F)F)n4)c3N21` (single isomer, unassigned) [Example 137, (E)-1^7-(1-(difluoromethyl)-1H-1,2,4-triazol-3-yl)-11-methyl-1^2,1^3-dihydro-1^1H-2,6-diaza-1(2,1)-benzo[d]imidazola-4(1,3)-benzenacycloundecaphane-3,5-dione], the IC50 under setting [1] is 9 nM.

Regarding `CC1CCCCNC(=O)c2cccc(c2)C(=O)/N=C2\Nc3cccc(-c4ncn(C(F)F)n4)c3N21` (single isomer, unassigned) [Example 138, (E)-1^7-(1-(difluoromethyl)-1H-1,2,4-triazol-3-yl)-11-methyl-1^2,1^3-dihydro-1^1H-2,6-diaza-1(2,1)-benzo[d]imidazola-4(1,3)-benzenacycloundecaphane-3,5-dione], the IC50 under setting [1] was found to be 8 nM.

`CC1CCCCNC(=O)c2cccc(c2)C(=O)/N=C2\Nc3cccc(-c4ncnn4C(F)F)c3N21` (single isomer, unassigned) [Example 139, (E)-1^7-(1-(difluoromethyl)-1H-1,2,4-triazol-5-yl)-11-methyl-1^2,1^3-dihydro-1^1H-2,6-diaza-1(2,1)-benzo[d]imidazola-4(1,3)-benzenacycloundecaphane-3,5-dione]: under setting [2], the IC50 came to 17 nM.

On to `CC1CCCCNC(=O)c2cccc(c2)C(=O)/N=C2\Nc3cccc(-c4ncnn4C(F)F)c3N21` (single isomer, unassigned) [Example 140, (E)-1^7-(1-(difluoromethyl)-1H-1,2,4-triazol-5-yl)-11-methyl-1^2,1^3-dihydro-1^1H-2,6-diaza-1(2,1)-benzo[d]imidazola-4(1,3)-benzenacycloundecaphane-3,5-dione], for which the IC50 under setting [2] was determined as 6 nM.

With `CC1CCCCNC(=O)c2cccc(c2)C(=O)/N=C2\Nc3cccc(N4CCN(C5CC5)C4=O)c3N21` (single isomer, unassigned) [Example 141, (E)-1^7-(3-cyclopropyl-2-oxoimidazolidin-1-yl)-11-methyl-1^2,1^3-dihydro-1H-2,6-diaza-1(2,1)-benzo[d]imidazola-4(1,3)-benzenacycloundecaphane-3,5-dione], the IC50 under setting [2] was 15 nM.

Regarding `CC1CCCCNC(=O)c2cccc(c2)C(=O)/N=C2\Nc3cccc(N4CCN(C5CC5)C4=O)c3N21` (single isomer, unassigned) [Example 142, (E)-1^7-(3-cyclopropyl-2-oxoimidazolidin-1-yl)-11-methyl-1^2,1^3-dihydro-1H-2,6-diaza-1(2,1)-benzo[d]imidazola-4(1,3)-benzenacycloundecaphane-3,5-dione], the IC50 by setting is: under setting [1], 7 nM; under setting [2], 8 nM.

`CC1CCCCNC(=O)c2cccc(c2)C(=O)/N=C2\Nc3cccc(N4CCN(C5COC5)C4=O)c3N21` (single isomer, unassigned) [Example 143, (E)-11-methyl-1^7-(3-(oxetan-3-yl)-2-oxoimidazolidin-1-yl)-1^2,1^3-dihydro-1^1H-2,6-diaza-1(2,1)-benzo[d]imidazola-4(1,3)-benzenacycloundecaphane-3,5-dione]: under setting [2], the IC50 is 14 nM.

Take `CC1CCCCNC(=O)c2cccc(c2)C(=O)/N=C2\Nc3cccc(N4CCN(C5COC5)C4=O)c3N21` (single isomer, unassigned) [Example 144, (E)-11-methyl-1^7-(3-(oxetan-3-yl)-2-oxoimidazolidin-1-yl)-1^2,1^3-dihydro-1^1H-2,6-diaza-1(2,1)-benzo[d]imidazola-4(1,3)-benzenacycloundecaphane-3,5-dione]: the IC50 under setting [2] worked out at 10 nM.

With `CNC(=O)c1cccc2nc3n(c12)C(C)CCCCNC(=O)c1cccc(c1)C(=O)N3` (centres unmarked) [Example 34, (E)-N,11-dimethyl-3,5-dioxo-1^2,1^3-dihydro-1^1H-2,6-diaza-1(2,1)-benzo[d]imidazola-4(1,3)-benzenacycloundecaphane-1^7-carboxamide], the 50% inhibitory concentration (IC50) under setting [1] is 2 nM.

Consider `CC1CCCCNC(=O)c2cccc(c2)C(=O)/N=C2\Nc3cccc(C(=O)N4CCC(F)(F)C4)c3N21` (centres unmarked) [Example 37, (E)-1^7-(3,3-difluoropyrrolidine-1-carbonyl)-11-methyl-1^2,1^3-dihydro-1^1H-2,6-diaza-1(2,1)-benzo[d]imidazola-4(1,3)-benzenacycloundecaphane-3,5-dione], for which the IC50 under setting [1] came to 5 nM.

In the case of `COC(=O)CN(C)C(=O)c1cccc2c1N1/C(=N/C(=O)c3cccc(c3)C(=O)NCCCCC1C)N2` (centres unmarked) [Example 38, methyl (E)-N-methyl-N-(11-methyl-3,5-dioxo-1^2,1^3-dihydro-1^1H-2,6-diaza-1(2,1)-benzo[d]imidazola-4(1,3)-benzenacycloundecaphane-1^7-carbonyl)glycinate], under setting [1], the IC50 was found to be 4 nM.

For `CC1CCCCNC(=O)c2cccc(c2)C(=O)/N=C2\Nc3cccc(C(=O)N(C)C4CCC4)c3N21` (centres unmarked) [Example 39, (E)-N-cyclobutyl-N,11-dimethyl-3,5-dioxo-1^2,1^3-dihydro-1^1H-2,6-diaza-1(2,1)-benzo[d]imidazola-4(1,3)-benzenacycloundecaphane-1^7-carboxamide], the IC50 under setting [1] is 6 nM.

The values above are taken from patent publication US20240279233A1, “MACROCYCLIC TAK1 INHIBITORS” (Aqilion AB, priority 2021, published 2024).
